For one assay, the target named is T1, human TLR7 (Homo sapiens, UniProt Q9NYK1).
T1 construct: host or cells: HEK-Blue cells
T1 sequence (Q9NYK1 27-1049): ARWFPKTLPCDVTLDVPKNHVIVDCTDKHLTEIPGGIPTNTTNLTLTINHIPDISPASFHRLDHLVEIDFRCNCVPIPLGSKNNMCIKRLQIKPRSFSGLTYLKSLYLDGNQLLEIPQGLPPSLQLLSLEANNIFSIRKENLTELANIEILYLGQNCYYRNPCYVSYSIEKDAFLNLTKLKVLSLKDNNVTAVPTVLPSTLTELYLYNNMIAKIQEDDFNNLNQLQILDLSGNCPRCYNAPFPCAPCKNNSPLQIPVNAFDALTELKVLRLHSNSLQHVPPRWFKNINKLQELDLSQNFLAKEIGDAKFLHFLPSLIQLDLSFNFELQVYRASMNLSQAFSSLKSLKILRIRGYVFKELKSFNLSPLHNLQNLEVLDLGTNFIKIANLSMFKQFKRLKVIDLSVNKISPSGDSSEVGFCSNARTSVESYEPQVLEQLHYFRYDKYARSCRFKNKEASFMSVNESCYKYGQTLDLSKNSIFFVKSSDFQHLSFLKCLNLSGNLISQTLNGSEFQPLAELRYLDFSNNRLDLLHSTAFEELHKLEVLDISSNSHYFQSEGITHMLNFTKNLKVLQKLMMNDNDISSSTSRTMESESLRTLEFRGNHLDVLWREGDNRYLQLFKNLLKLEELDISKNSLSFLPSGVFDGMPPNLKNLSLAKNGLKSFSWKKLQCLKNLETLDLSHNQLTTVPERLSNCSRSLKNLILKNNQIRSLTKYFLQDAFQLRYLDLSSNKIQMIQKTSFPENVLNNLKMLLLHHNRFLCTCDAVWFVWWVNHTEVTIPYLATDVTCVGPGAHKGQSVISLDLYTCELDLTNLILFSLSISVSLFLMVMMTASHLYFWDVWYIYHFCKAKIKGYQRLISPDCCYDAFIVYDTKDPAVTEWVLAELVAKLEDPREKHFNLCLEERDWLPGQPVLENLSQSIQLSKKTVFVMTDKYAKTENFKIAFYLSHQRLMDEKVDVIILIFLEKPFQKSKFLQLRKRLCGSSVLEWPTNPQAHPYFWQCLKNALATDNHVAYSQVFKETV
Description: TLR7 inhibition reporter assay (HEK-Blue SEAP). It counts as cell-based. Particulars: HEK-Blue cells overexpressing human TLR7, gardiquimod 7.5 μM, 22 hour incubation. An outline of the steps: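 Cells (15000/well for TLR7, 20,000 for TLR8) were treated with compounds over 0.05 nM-50 μM final. After 22 h at 37° C, 5% CO2, SEAP was measured with HEK-Blue Detection reagent; percent inhibition was taken as reduction of agonist-plus-DMSO signal relative to a known inhibitor.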

The target of the next assay is T2, human TLR8 (Homo sapiens, UniProt Q9NR97).
T2 construct: host or cells: HEK-Blue cells
T2 sequence (Q9NR97 27-1041): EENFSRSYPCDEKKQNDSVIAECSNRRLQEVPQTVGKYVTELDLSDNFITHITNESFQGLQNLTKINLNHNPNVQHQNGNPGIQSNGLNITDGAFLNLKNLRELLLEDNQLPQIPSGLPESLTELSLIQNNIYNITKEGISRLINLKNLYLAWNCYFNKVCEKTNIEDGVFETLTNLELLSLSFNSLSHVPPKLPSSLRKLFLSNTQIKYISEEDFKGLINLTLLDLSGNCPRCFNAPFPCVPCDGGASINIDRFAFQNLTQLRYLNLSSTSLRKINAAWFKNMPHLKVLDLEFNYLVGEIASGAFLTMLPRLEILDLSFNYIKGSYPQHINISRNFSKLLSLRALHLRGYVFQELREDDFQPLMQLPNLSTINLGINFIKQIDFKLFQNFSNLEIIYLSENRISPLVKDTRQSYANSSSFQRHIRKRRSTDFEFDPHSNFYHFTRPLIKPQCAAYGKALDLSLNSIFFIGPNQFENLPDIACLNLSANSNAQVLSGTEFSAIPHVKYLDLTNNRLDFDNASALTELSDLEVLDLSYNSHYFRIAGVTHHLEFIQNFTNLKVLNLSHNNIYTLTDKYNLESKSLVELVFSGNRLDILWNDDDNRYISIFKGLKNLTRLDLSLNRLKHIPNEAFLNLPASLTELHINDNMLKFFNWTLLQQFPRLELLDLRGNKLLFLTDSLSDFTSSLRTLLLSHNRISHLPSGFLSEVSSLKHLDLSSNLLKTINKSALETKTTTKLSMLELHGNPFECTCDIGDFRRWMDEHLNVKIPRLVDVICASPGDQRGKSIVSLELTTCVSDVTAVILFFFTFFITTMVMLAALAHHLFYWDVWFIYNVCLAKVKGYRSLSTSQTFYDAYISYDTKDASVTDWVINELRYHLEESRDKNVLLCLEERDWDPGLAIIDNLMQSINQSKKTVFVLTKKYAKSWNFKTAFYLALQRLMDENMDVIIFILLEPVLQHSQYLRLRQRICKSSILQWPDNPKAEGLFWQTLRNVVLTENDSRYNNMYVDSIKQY
Description: TLR8 inhibition reporter assay (HEK-Blue SEAP). Type of assay: cell-based. As to conditions: HEK-Blue cells overexpressing human TLR8, R848 15.9 μM, 22 hour incubation. An outline of the steps:
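Human TLR7/8/9 HEK-Blue reporter lines; dose range 0.05 nM–50 μM; 30 min RT preincubation; stimulus gardiquimod 7.5 μM / R848 15.9 μM / ODN2006 5 nM respectively; 22 h, 37 °C; SEAP detected colorimetrically.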
(In a reporter assay the amount or activity of a reporter protein is the signal.)

What is called IC50 is the concentration needed to halve the response being measured. Lower therefore signals greater potency in that assay. For `COc1cc(-c2cc3[nH]c(=O)n([C@@H]4CCCN(CC(=O)N(C)C)C4)c3cc2C)cn2ncnc12` [Example 99, (R)-2-(3-(5-(8-methoxy-[1,2,4]triazolo[1,5-a]pyridin-6-yl)-6-methyl-2-oxo-2,3-dihydro-1H-benzo[d]imidazol-1-yl)piperidin-1-yl)-N,N-dimethylacetamide], the IC50 against human TLR7 came out at 391 nM; at human TLR8, 354 nM.
For `COc1cc(-c2cc3[nH]c(=O)n([C@@H]4CCCN(CC5CCC5)C4)c3cc2C(C)C)cn2ncnc12` [Example 140, (R)-1-(1-(cyclobutylmethyl)piperidin-3-yl)-6-isopropyl-5-(8-methoxy-[1,2,4]triazolo[1,5-a]pyridin-6-yl)-1,3-dihydro-2H-benzo[d]imidazol-2-one] the same measures were 1.3 nM and 3.92 nM.
Consider `CCCN1CCC(n2c(=O)[nH]c3cc(-c4cc(OC)c5ncnn5c4)c(C(C)C)cc32)CC1` [Example 155, 6-isopropyl-5-(8-methoxy-[1,2,4]triazolo[1,5-a]pyridin-6-yl)-1-(1-propylpiperidin-4-yl)-1,3-dihydro-2H-benzo[d]imidazol-2-one], for which the figures for the IC50 on human TLR7 and on human TLR8 were 6.33 nM and 9.56 nM, respectively.
For `COc1cc(-c2cc3[nH]c(=O)n([C@H]4CCCN(C5CCC5)C4)c3cc2C(C)C)cn2ncnc12` [Example 122, (S)-1-(1-cyclobutylpiperidin-3-yl)-6-isopropyl-5-(8-methoxy-[1,2,4]triazolo[1,5-a]pyridin-6-yl)-1,3-dihydro-2H-benzo[d]imidazol-2-one] the same measures were 15.1 nM and 1.5 nM.
For `Cc1cc(-c2cc(C)c3ncnn3c2)cc2[nH]c(=O)n(C3CCN(CC(=O)N(C)C)CC3)c12` [Example 109, N,N-dimethyl-2-(4-(7-methyl-5-(8-methyl-[1,2,4]triazolo[1,5-a]pyridin-6-yl)-2-oxo-2,3-dihydro-1H-benzo[d]imidazol-1-yl)piperidin-1-yl)acetamide] the same measures were 74.1 nM and 541 nM.
Turning to `CCCN1CCC[C@@H](n2c(=O)[nH]c3cc(-c4cc(OC)c5ncnn5c4)c(C(F)(F)F)cc32)C1` [Example 115, (R)-5-(8-methoxy-[1,2,4]triazolo[1,5-a]pyridin-6-yl)-1-(1-propylpiperidin-3-yl)-6-(trifluoromethyl)-1,3-dihydro-2H-benzo[d]imidazol-2-one], the IC50 against human TLR7 worked out at 34.1 nM; against human TLR8 it was 14.4 nM.
With `COc1cc(-c2cc3[nH]c(=O)n([C@@H]4CCCN(CC5CCOCC5)C4)c3cc2C(C)C)cn2ncnc12` [Example 139, (R)-6-isopropyl-5-(8-methoxy-[1,2,4]triazolo[1,5-a]pyridin-6-yl)-1-(1-((tetrahydro-2H-pyran-4-yl)methyl)piperidin-3-yl)-1,3-dihydro-2H-benzo[d]imidazol-2-one], the IC50 on human TLR7 was 0.76 nM; against human TLR8, 1.27 nM.

The values are drawn from patent US12187723B2 (BRISTOL-MYERS SQUIBB COMPANY, priority 2019, dated 2025).
